Assay results reported in patent US20210085640A1, “ACYLATED CATECHIN POLYPHENOLS AND METHODS OF THEIR USE FOR THE TREATMENT OF CANCER” (Flagship Pioneering Innovations V, Inc., priority 2018, published 2021).

Experiments:
[1] = Stability in Simulated Gastric Fluid (SGF); assay type: in vitro ADME; settings: SGF pH 1.6 with pepsin, 1 μM, 37° C.
Description: Stability of acylated active agents in Simulated Gastric Fluid (SGF). This assay was used to assess the stability of an acylated active agent in a stomach.
Medium was prepared by dissolving 2 g of sodium chloride in 0.6 L in ultrapure water (MilliQ®, Millipore Sigma, Darmstadt, Germany). The pH was adjusted to 1.6 with 1N hydrochloric acid, and the volume was then adjusted to 1 L with purified water.
60 mg FaSSIF powder (Biorelevant™, London, UK) were dissolved in 500 mL buffer (above). Pepsin was added (0.1 mg/mL) (Millipore Sigma, Darmstadt, Germany), and the solution was stirred. The resulting SGF media were used fresh for each experiment.
Test compounds were dissolved in DMSO stock to 1 mM. An aliquot of the DMSO stock solution was removed and diluted in the SGF Media in 15 mL falcon tubes to generate a total compound concentration of 1 μM. A 1 mL aliquot was immediately removed and diluted once with 1 volume of acetonitrile for T0 timepoint. The mixture was sealed and mixed at 37° C. in an incubator. Aliquots (1 mL) were removed at regular intervals and immediately quenched by the addition of 1 volume of acetonitrile. The resulting samples were analyzed by LC/MS to determine degradation rates

[2] = test system: Daudi lymphoma cancer cells; assay: Cancer cell survival (CellTiter-Glo), Daudi; assay type: cell-based; settings: 72 h
Outline: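 Daudi cells (4×10^3/well) were exposed for 72 h at 37 °C to nine concentrations of compound, added as 10× solutions spanning 1 μM–10 mM (fatty acids) or 100 nM–1 mM (others). CellTiter-Glo luminescence gave % survival versus untreated, medium-blank corrected; IC50 derived.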

T24 bladder cancer cells = assay: Cancer cell survival (CellTiter-Glo), T24; assay type: cell-based; settings: 72 h
Outline: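 T24 cells seeded at 4×10^3 cells/well overnight, then exposed 72 h at 37 C, 5% CO2 to nine concentrations in triplicate. Survival measured by CellTiter-Glo luminescence relative to untreated and medium controls; IC50 derived.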

A549 lung cancer cells = assay: Cancer cell survival (CellTiter-Glo), A549; assay type: cell-based; settings: 72 h
Outline: (§1)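 Log-phase cells are plated at 4×10^3 per well and incubated overnight. Compounds, prepared in media as 10× solutions, are then added and the plates held 72 h at 37 C. Viability is measured by CellTiter-Glo luminescence, and IC50 is derived from survival relative to untreated controls.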

[3] = test system: HCT 116 colorectal cancer cells; assay: Cancer cell survival (CellTiter-Glo), HCT 116; assay type: cell-based; settings: HCT 116 cells, 72 h
Outline: as §1

MCF7 breast cancer cells = assay: Cancer cell survival (CellTiter-Glo), MCF7; assay type: cell-based; settings: 72 h
Outline: as §1

[4] = test system: PC-3 prostate cancer cells; assay: Cancer cell survival (CellTiter-Glo), PC-3; assay type: cell-based; settings: PC-3 cells, 72 h
Outline: as §1

A-431 skin cancer cells = assay: Cancer cell survival (CellTiter-Glo), A-431; assay type: cell-based; set-up: Cell survival at given concentration: unit not given here; settings: A-431 cells, 72 h
Outline: as §1

AGS stomach cancer cells = assay: Cancer cell survival (CellTiter-Glo), AGS; assay type: cell-based; set-up: Cell survival at given concentration: unit not given here
Outline: as §1

CC(=O)Oc1cc(OC(C)=O)c2c(=O)c(OC(C)=O)c(-c3cc(OC(C)=O)c(OC(C)=O)c(OC(C)=O)c3)oc2c1 [Compound 11, [3,5-diacetoxy-4-oxo-2-(3,4,5-triacetoxyphenyl)chromen-7-yl] acetate]
Assay 1 (SGF) (% Remaining @ 1 hours) [1]: C (>75% of the tested compound remaining)

CC(O)CC(=O)O (stereo not drawn) [beta-hydroxybutyrate]
Cell survival at given concentration ([2]; 1 μM, Table 4.2): 1.01 | Cell survival at given concentration ([2]; 3 μM, Table 4.2): 0.99 | Cell survival at given concentration ([2]; 10 μM, Table 4.2): 0.98 | Cell survival at given concentration ([2]; 32 μM, Table 4.2): 0.98 | Cell survival at given concentration ([2]; 100 μM, Table 4.2): 1.02 | Cell survival at given concentration ([2]; 317 μM): 0.99 | Cell survival at given concentration ([2]; 1 mM): 0.99 | Cell survival at given concentration ([2]; 3 mM): 0.96 | Cell survival at given concentration ([2]; 10 mM): 0.91 | Cell survival at given concentration (T24 bladder cancer cells; 1 μM, Table 3.2): 0.97 | Cell survival at given concentration (T24 bladder cancer cells; 3 μM, Table 3.2): 1.00 | Cell survival at given concentration (T24 bladder cancer cells; 10 μM, Table 3.2): 0.98 | Cell survival at given concentration (T24 bladder cancer cells; 32 μM, Table 3.2): 0.95 | Cell survival at given concentration (T24 bladder cancer cells; 100 μM, Table 3.2): 0.96 | Cell survival at given concentration (T24 bladder cancer cells; 317 μM): 1.02 | Cell survival at given concentration (T24 bladder cancer cells; 1 mM): 0.99 | Cell survival at given concentration (T24 bladder cancer cells; 3 mM): 0.99 | Cell survival at given concentration (T24 bladder cancer cells; 10 mM): 1.00 | Cell survival at given concentration (A549 lung cancer cells; 1 μM, Table 7.2): 1.00 | Cell survival at given concentration (A549 lung cancer cells; 3 μM, Table 7.2): 0.99 | Cell survival at given concentration (A549 lung cancer cells; 10 μM, Table 7.2): 1.01 | Cell survival at given concentration (A549 lung cancer cells; 32 μM, Table 7.2): 1.02 | Cell survival at given concentration (A549 lung cancer cells; 100 μM, Table 7.2): 1.05 | Cell survival at given concentration (A549 lung cancer cells; 317 μM): 1.01 | Cell survival at given concentration (A549 lung cancer cells; 1 mM): 1.01 | Cell survival at given concentration (A549 lung cancer cells; 3 mM): 1.01 | Cell survival at given concentration (A549 lung cancer cells; 10 mM): 0.98 | IC50 (A549 lung cancer cells; Table 7.2): > 10 mM | Cell survival at given concentration ([3]; 1 μM, Table 6.2): 0.98 | Cell survival at given concentration ([3]; 3 μM, Table 6.2): 1.00 | Cell survival at given concentration ([3]; 10 μM, Table 6.2): 0.99 | Cell survival at given concentration ([3]; 32 μM, Table 6.2): 0.98 | Cell survival at given concentration ([3]; 100 μM, Table 6.2): 1.00 | Cell survival at given concentration ([3]; 317 μM): 1.03 | Cell survival at given concentration ([3]; 1 mM): 1.01 | Cell survival at given concentration ([3]; 3 mM): 0.96 | Cell survival at given concentration ([3]; 10 mM): 0.90 | Cell survival at given concentration (MCF7 breast cancer cells; 1 μM, Table 5.2): 1.00 | Cell survival at given concentration (MCF7 breast cancer cells; 3 μM, Table 5.2): 1.00 | Cell survival at given concentration (MCF7 breast cancer cells; 10 μM, Table 5.2): 1.00 | Cell survival at given concentration (MCF7 breast cancer cells; 32 μM, Table 5.2): 1.01 | Cell survival at given concentration (MCF7 breast cancer cells; 100 μM, Table 5.2): 1.03 | Cell survival at given concentration (MCF7 breast cancer cells; 317 μM): 1.01 | Cell survival at given concentration (MCF7 breast cancer cells; 1 mM): 0.97 | Cell survival at given concentration (MCF7 breast cancer cells; 3 mM): 0.92 | Cell survival at given concentration (MCF7 breast cancer cells; 10 mM): 0.91 | Cell survival at given concentration ([4]; 1 μM, Table 8.2): 1.01 | Cell survival at given concentration ([4]; 3 μM, Table 8.2): 1.00 | Cell survival at given concentration ([4]; 10 μM, Table 8.2): 1.01 | Cell survival at given concentration ([4]; 32 μM, Table 8.2): 1.03 | Cell survival at given concentration ([4]; 100 μM, Table 8.2): 1.03 | Cell survival at given concentration ([4]; 317 μM): 1.03 | Cell survival at given concentration ([4]; 1 mM): 1.01 | Cell survival at given concentration ([4]; 3 mM): 1.00 | Cell survival at given concentration ([4]; 10 mM): 0.97 | Cell survival at given concentration (A-431 skin cancer cells; 1 μM, Table 9.2): 1.01 | Cell survival at given concentration (A-431 skin cancer cells; 3 μM, Table 9.2): 1.02 | Cell survival at given concentration (A-431 skin cancer cells; 10 μM, Table 9.2): 1.03 | Cell survival at given concentration (A-431 skin cancer cells; 32 μM, Table 9.2): 1.03 | Cell survival at given concentration (A-431 skin cancer cells; 100 μM, Table 9.2): 1.03 | Cell survival at given concentration (A-431 skin cancer cells; 317 μM): 1.05 | Cell survival at given concentration (A-431 skin cancer cells; 1 mM): 1.05 | Cell survival at given concentration (A-431 skin cancer cells; 3 mM): 1.03 | Cell survival at given concentration (A-431 skin cancer cells; 10 mM): 1.01 | Cell survival at given concentration (AGS stomach cancer cells; 1 μM, Table 10.2): 1.01 | Cell survival at given concentration (AGS stomach cancer cells; 3 μM, Table 10.2): 1.03 | Cell survival at given concentration (AGS stomach cancer cells; 10 μM, Table 10.2): 1.01 | Cell survival at given concentration (AGS stomach cancer cells; 32 μM, Table 10.2): 1.02 | Cell survival at given concentration (AGS stomach cancer cells; 100 μM, Table 10.2): 1.04 | Cell survival at given concentration (AGS stomach cancer cells; 317 μM): 1.03 | Cell survival at given concentration (AGS stomach cancer cells; 1 mM): 1.04 | Cell survival at given concentration (AGS stomach cancer cells; 3 mM): 1.03 | Cell survival at given concentration (AGS stomach cancer cells; 10 mM): 1.00

CCCC(=O)O[C@H](C)CCOC(=O)C[C@@H](C)OC(=O)CCC [Compound 23, (R)-3-(butyryloxy)butyl (R)-3-(butyryloxy)butanoate]
Assay 1 (SGF) (% Remaining @ 1 hours) [1]: C (>75% of the tested compound remaining)

CCC(=O)Oc1cc(OC(=O)CC)c2c(c1)O[C@H](c1cc(OC(=O)CC)c(OC(=O)CC)c(OC(=O)CC)c1)[C@H](OC(=O)c1cc(OC(=O)CC)c(OC(=O)CC)c(OC(=O)CC)c1)C2 [Compound 15, [(2R,3R)-5,7-di(propanoyloxy)-2-[3,4,5-tri(propanoyloxy)phenyl]chroman-3-yl] 3,4,5-tri(propanoyloxy)benzoate]
Assay 1 (SGF) (% Remaining @ 1 hours) [1]: C (>75% of the tested compound remaining)

CC(=O)Oc1ccc(-c2oc3cc(OC(C)=O)cc(OC(C)=O)c3c(=O)c2OC(C)=O)cc1 [Compound 8, [4-(3,5,7-triacetoxy-4-oxo-chromen-2-yl)phenyl] acetate]
Assay 1 (SGF) (% Remaining @ 1 hours) [1]: C (>75% of the tested compound remaining)
